22 compounds from patent US8735425B2, “Tetrahydroisoquinoline derivative” (Daiichi Sankyo Company, Limited, priority 2008, dated 2014) can be followed below.

Experiment [1] concerns the target T1, DGAT1 enzyme (Homo sapiens, UniProt O75907).
T1 construct: made in house
T1 sequence (O75907 1-488): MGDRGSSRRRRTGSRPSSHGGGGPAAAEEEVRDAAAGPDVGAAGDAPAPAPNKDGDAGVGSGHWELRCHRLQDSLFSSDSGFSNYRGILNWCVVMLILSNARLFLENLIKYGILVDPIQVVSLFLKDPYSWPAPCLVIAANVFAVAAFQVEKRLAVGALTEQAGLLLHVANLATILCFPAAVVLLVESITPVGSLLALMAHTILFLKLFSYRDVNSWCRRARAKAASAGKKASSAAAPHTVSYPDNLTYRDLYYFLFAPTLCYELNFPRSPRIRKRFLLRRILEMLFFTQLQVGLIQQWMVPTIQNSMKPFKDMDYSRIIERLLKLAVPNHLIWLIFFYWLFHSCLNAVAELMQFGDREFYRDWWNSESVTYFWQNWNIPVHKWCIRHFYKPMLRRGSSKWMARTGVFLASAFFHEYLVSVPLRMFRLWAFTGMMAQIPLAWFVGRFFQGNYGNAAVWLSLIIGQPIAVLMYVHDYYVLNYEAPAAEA
Kind of experiment: DGAT1 inhibitory activity test. Type of experiment: biochemical. To be noted: test compound concentration of 0.05 μg/ml; read-out: Inhibitory Rate. The method in brief: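 Reaction at 23° C for 30 min in 175 mM Tris-HCl pH 8.0, 8 mM MgCl2, 1 mg/ml BSA, 0.5% Triton X-100 with 0.3 mM 1,2-dioleoyl-sn-glycerol and 10 μM [14C]-oleoyl-CoA. Triglyceride extracted into heptane, separated by TLC, radioactivity quantified; % inhibition versus vehicle control, 0-min background subtracted.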

In experiment [2] the test system is Male C57BL/6N mice. Kind of experiment: Triglyceride absorption suppression after fat loading (in vivo DGAT1 inhibitory effect). The conditions noted are these: Mus musculus, po; dose of 10 mg/kg or lower, orally administered, mice fasted overnight, plasma triglyceride after fat loading; read-out: Triglyceride absorption suppressive activity. The method in brief: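 Overnight-fasted male C57BL/6N mice dosed orally with compound (1 to 10 mg/kg in 0.5% methylcellulose), then given Pluronic-F127 1 g/kg i.p. and an oral 20% Intralipid load. Plasma triglyceride measured 1 to 4 h later. Absorption suppression (%) calculated against water-loaded and fat-loaded vehicle groups.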

On to `COc1cc(NC(=O)Nc2ccc3c(c2)CCN(C(=O)O[C@H]2CC[C@H](CC(=O)O)CC2)C3)ccc1F` [Example 58, trans-6-[3-(4-fluoro-3-methoxy-phenyl)-ureido]-3,4-dihydro-1H-isoquinoline-2-carboxylic acid 4-carboxymethyl-cyclohexyl ester], for which, in experiment [1], the inhibition at 0.05 µg/mL was not below 50%. Besides, the inhibition in vivo at up to 10 mg/kg in experiment [2] was not below 60%.

Take `CCOc1cc(NC(=O)Nc2ccc3c(c2)CCN(C(=O)O[C@H]2CC[C@H](CC(=O)O)CC2)C3)ccc1F` [Example 59, trans-6-[3-(3-ethoxy-4-fluoro-phenyl)-ureido]-3,4-dihydro-1H-isoquinoline-2-carboxylic acid 4-carboxymethyl-cyclohexyl ester]: in experiment [1], the inhibition at 0.05 µg/mL is not below 50%. For the same compound, in experiment [2], the inhibition in vivo at up to 10 mg/kg was not below 60%.

On to `COc1ccc(F)c(NC(=O)Nc2ccc3c(c2)CCN(C(=O)O[C@H]2CC[C@H](CC(=O)O)CC2)C3)c1` [Example 60, trans-6-[3-(2-fluoro-5-methoxy-phenyl)-ureido]-3,4-dihydro-1H-isoquinoline-2-carboxylic acid 4-carboxymethyl-cyclohexyl ester], for which, in experiment [1], the inhibition at 0.05 µg/mL is not below 50%. The inhibition in vivo at up to 10 mg/kg in experiment [2] was not below 60%.

In the case of `CCOc1ccc(F)c(NC(=O)Nc2ccc3c(c2)CCN(C(=O)O[C@H]2CC[C@H](CC(=O)O)CC2)C3)c1` [Example 61, trans-6-[3-(5-ethoxy-2-fluoro-phenyl)-ureido]-3,4-dihydro-1H-isoquinoline-2-carboxylic acid 4-carboxymethyl-cyclohexyl ester], the inhibition at 0.05 µg/mL in experiment [1] is not below 50%. Besides, the inhibition in vivo at up to 10 mg/kg in experiment [2] is not below 60%.

As for `CSc1ccc(NC(=O)Nc2ccc3c(c2)CCN(C(=O)O[C@H]2CC[C@H](CC(=O)O)CC2)C3)cc1` [Example 62, trans-6-[3-(4-methylsulfanyl-phenyl)-ureido]-3,4-dihydro-1H-isoquinoline-2-carboxylic acid 4-carboxymethyl-cyclohexyl ester], in experiment [1], the inhibition at 0.05 µg/mL was not below 50%. Further, the inhibition in vivo at up to 10 mg/kg in experiment [2] was not below 60%.

Turning to `CSc1cccc(NC(=O)Nc2ccc3c(c2)CCN(C(=O)O[C@H]2CC[C@H](CC(=O)O)CC2)C3)c1` [Example 64, trans-6-[3-(3-methylsulfanyl-phenyl)-ureido]-3,4-dihydro-1H-isoquinoline-2-carboxylic acid 4-carboxymethyl-cyclohexyl ester], the inhibition at 0.05 µg/mL in experiment [1] is not below 50%. Besides, the inhibition in vivo at up to 10 mg/kg in experiment [2] was not below 60%.

As to `O=C(O)C[C@H]1CC[C@H](OC(=O)N2CCc3cc(NC(=O)Nc4cccc(C(F)(F)F)c4)ccc3C2)CC1` [Example 66, trans-6-[3-(3-trifluoromethyl-phenyl)-ureido]-3,4-dihydro-1H-isoquinoline-2-carboxylic acid 4-carboxymethyl-cyclohexyl ester], the inhibition at 0.05 µg/mL in experiment [1] was not below 50%. The inhibition in vivo at up to 10 mg/kg in experiment [2] is not below 60%.

For `O=C(O)C[C@H]1CC[C@H](OC(=O)N2CCc3cc(NC(=O)Nc4cccc(F)c4)ccc3C2)CC1` [Example 67, trans-6-[3-(3-fluoro-phenyl)-ureido]-3,4-dihydro-1H-isoquinoline-2-carboxylic acid 4-carboxymethyl-cyclohexyl ester], the inhibition at 0.05 µg/mL in experiment [1] was not below 50%. Further, in experiment [2], the inhibition in vivo at up to 10 mg/kg is not below 60%.

Consider `Cc1cccc(NC(=O)Nc2ccc3c(c2)CCN(C(=O)O[C@H]2CC[C@H](CC(=O)O)CC2)C3)c1` [Example 68, trans-6-(3-m-tolyl-ureido)-3,4-dihydro-1H-isoquinoline-2-carboxylic acid 4-carboxymethyl-cyclohexyl ester], for which the inhibition at 0.05 µg/mL in experiment [1] was not below 50%. Moreover, the inhibition in vivo at up to 10 mg/kg in experiment [2] was not below 60%.

In the case of `O=C(O)C[C@H]1CC[C@H](OC(=O)N2CCc3cc(NC(=O)Nc4ccc(C(F)(F)F)cc4)ccc3C2)CC1` [Example 69, trans-6-[3-(4-trifluoromethyl-phenyl)-ureido]-3,4-dihydro-1H-isoquinoline-2-carboxylic acid 4-carboxymethyl-cyclohexyl ester], the inhibition at 0.05 µg/mL in experiment [1] is not below 50%. Besides, the inhibition in vivo at up to 10 mg/kg in experiment [2] is not below 60%.

Consider `CCc1cccc(NC(=O)Nc2ccc3c(c2)CCN(C(=O)O[C@H]2CC[C@H](CC(=O)O)CC2)C3)c1` [Example 70, trans-6-[3-(3-ethyl-phenyl)-ureido]-3,4-dihydro-1H-isoquinoline-2-carboxylic acid 4-carboxymethyl-cyclohexyl ester], for which the inhibition at 0.05 µg/mL in experiment [1] is not below 50%. The inhibition in vivo at up to 10 mg/kg in experiment [2] was not below 60%.

For the compound `Cc1ccc(NC(=O)Nc2ccc3c(c2)CCN(C(=O)O[C@H]2CC[C@H](CC(=O)O)CC2)C3)cc1` [Example 71, trans-6-(3-p-tolyl-ureido)-3,4-dihydro-1H-isoquinoline-2-carboxylic acid 4-carboxymethyl-cyclohexyl ester], in experiment [1], the inhibition at 0.05 µg/mL is not below 50%. For the same compound, the inhibition in vivo at up to 10 mg/kg in experiment [2] is not below 60%.

Take `CC(C)c1ccc(NC(=O)Nc2ccc3c(c2)CCN(C(=O)O[C@H]2CC[C@H](CC(=O)O)CC2)C3)cc1` [Example 72, trans-6-[3-(4-isopropyl-phenyl)-ureido]-3,4-dihydro-1H-isoquinoline-2-carboxylic acid 4-carboxymethyl-cyclohexyl ester]: the inhibition at 0.05 µg/mL in experiment [1] is not below 50%. In experiment [2], the inhibition in vivo at up to 10 mg/kg was not below 60%.

`CC(C)(C)c1ccc(NC(=O)Nc2ccc3c(c2)CCN(C(=O)O[C@H]2CC[C@H](CC(=O)O)CC2)C3)cc1` [Example 73, trans-6-[3-(4-tert-butyl-phenyl)-ureido]-3,4-dihydro-1H-isoquinoline-2-carboxylic acid 4-carboxymethyl-cyclohexyl ester]: in experiment [1], the inhibition at 0.05 µg/mL is not below 50%. Further, the inhibition in vivo at up to 10 mg/kg in experiment [2] was not below 60%.

For `N#Cc1cccc(NC(=O)Nc2ccc3c(c2)CCN(C(=O)O[C@H]2CC[C@H](CC(=O)O)CC2)C3)c1` [Example 74, trans-6-[3-(3-cyano-phenyl)-ureido]-3,4-dihydro-1H-isoquinoline-2-carboxylic acid 4-carboxymethyl-cyclohexyl ester], the inhibition at 0.05 µg/mL in experiment [1] is not below 50%. Moreover, in experiment [2], the inhibition in vivo at up to 10 mg/kg is not below 60%.

As to `CN(C)c1cccc(NC(=O)Nc2ccc3c(c2)CCN(C(=O)O[C@H]2CC[C@H](CC(=O)O)CC2)C3)c1` [Example 75, trans-6-[3-(3-dimethylamino-phenyl)-ureido]-3,4-dihydro-1H-isoquinoline-2-carboxylic acid 4-carboxymethyl-cyclohexyl ester], the inhibition at 0.05 µg/mL in experiment [1] was not below 50%. In addition, the inhibition in vivo at up to 10 mg/kg in experiment [2] was not below 60%.

For `CC(C)(C)c1cccc(NC(=O)Nc2ccc3c(c2)CCN(C(=O)O[C@H]2CC[C@H](CC(=O)O)CC2)C3)c1` [Example 76, trans-6-[3-(3-tert-butyl-phenyl)-ureido]-3,4-dihydro-1H-isoquinoline-2-carboxylic acid 4-carboxymethyl-cyclohexyl ester], the inhibition at 0.05 µg/mL in experiment [1] was not below 50%. For the same compound, in experiment [2], the inhibition in vivo at up to 10 mg/kg was not below 60%.

On to `Cc1ccccc1NC(=O)Nc1ccc2c(c1)CCN(C(=O)O[C@H]1CC[C@H](CC(=O)O)CC1)C2` [Example 77, trans-6-(3-o-tolyl-ureido)-3,4-dihydro-1H-isoquinoline-2-carboxylic acid 4-carboxymethyl-cyclohexyl ester], for which the inhibition at 0.05 µg/mL in experiment [1] was not below 50%. Further, in experiment [2], the inhibition in vivo at up to 10 mg/kg was not below 60%.

Consider `Cc1ccc(NC(=O)Nc2ccc3c(c2)CCN(C(=O)O[C@H]2CC[C@H](CC(=O)O)CC2)C3)cc1C` [Example 78, trans-6-[3-(3,4-dimethyl-phenyl)-ureido]-3,4-dihydro-1H-isoquinoline-2-carboxylic acid 4-carboxymethyl-cyclohexyl ester], for which the inhibition at 0.05 µg/mL in experiment [1] was not below 50%. The inhibition in vivo at up to 10 mg/kg in experiment [2] is not below 60%.

Take `CCOc1ccc(NC(=O)Nc2ccc3c(c2)CCN(C(=O)O[C@H]2CC[C@H](CC(=O)O)CC2)C3)cc1` [Example 80, trans-6-[3-(4-ethoxy-phenyl)-ureido]-3,4-dihydro-1H-isoquinoline-2-carboxylic acid 4-carboxymethyl-cyclohexyl ester]: the inhibition at 0.05 µg/mL in experiment [1] is not below 50%. For the same compound, the inhibition in vivo at up to 10 mg/kg in experiment [2] was not below 60%.

Consider `CC(C)(C)NC(=O)Nc1ccc2c(c1)CCN(C(=O)O[C@H]1CC[C@H](CC(=O)O)CC1)C2` [Example 82, trans-6-(3-tert-butyl-ureido)-3,4-dihydro-1H-isoquinoline-2-carboxylic acid 4-carboxymethyl-cyclohexyl ester], for which the inhibition at 0.05 µg/mL in experiment [1] was not below 50%. Further, the inhibition in vivo at up to 10 mg/kg in experiment [2] is not below 60%.

On to `O=C(O)C[C@H]1CC[C@H](OC(=O)N2CCc3cc(NC(=O)NC4CCCC4)ccc3C2)CC1` [Example 83, trans-6-(3-cyclopentyl-ureido)-3,4-dihydro-1H-isoquinoline-2-carboxylic acid 4-carboxymethyl-cyclohexyl ester], for which, in experiment [1], the inhibition at 0.05 µg/mL was not below 50%. Also, the inhibition in vivo at up to 10 mg/kg in experiment [2] was not below 60%.
